Measured values: ChEMBL document CHEMBL3399925, “Synthesis and antimycobacterial properties of ring-substituted 6-hydroxynaphthalene-2-carboxanilides” (Bioorg Med Chem, 2015)
Converted amounts (≈) assume the structure as drawn.

Tests used:
[1] = Lipophilicity, log K of the compound by HPLC method; format: physicochemical
[2] = test system: Mycobacterium tuberculosis; experiment: microbe, parasite or virus in culture; format: functional; settings: H37Ra ATCC 25177, 168 h
Description: Antimycobacterial activity against Mycobacterium tuberculosis H37Ra ATCC 25177 incubated for 7 days by alamar blue assay

[3] = test system: Mycobacterium avium complex sp.; experiment: Antimycobacterial activity against Mycobacterium avium complex isolate CIT19/06 incubated for 5 days by alamar blue assay; format: functional; settings: isolate CIT19/06, 120 h
[4] = test system: Mycobacterium avium subsp. paratuberculosis; experiment: Antimycobacterial activity against Mycobacterium avium subsp. paratuberculosis isolate CIT03 incubated for 11 days by alamar blue assay; format: functional; settings: isolate CIT03, 264 h
THP-1 = experiment: Cytotoxicity against human THP1 cells after 24 hrs by WST1 assay; format: cell-based; settings: THP-1, 24 h
[5] = test system: Mycobacterium tuberculosis; experiment: Antimycobacterial activity against Mycobacterium tuberculosis H37Ra ATCC 25177 assessed as cell viability at 8 ug/ml incubated for 7 days by MTT assay; format: functional

Compound | log K [1] | MIC90 [2] [µM] | MIC90 [3] [µM] | MIC90 [4] [µM] | IC50 (THP-1) [µM] | Activity [5] [%]
O=C(Nc1ccccc1)c1ccc2cc(O)ccc2c1 | 0.6612 | 30 (≈ 7.9 µg/mL) | 57 (≈ 15 µg/mL) | 30 (≈ 7.9 µg/mL) | > 30 | 
COc1ccccc1NC(=O)c1ccc2cc(O)ccc2c1 | 0.6039 | 27 (≈ 7.92 µg/mL) | 51 (≈ 15 µg/mL) | 27 (≈ 7.92 µg/mL) | > 30 | 
COc1cccc(NC(=O)c2ccc3cc(O)ccc3c2)c1 | 0.4463 | 27 (≈ 7.92 µg/mL) | 102 (≈ 29.9 µg/mL) | 27 (≈ 7.92 µg/mL) | > 30 | 62.2
COc1ccc(NC(=O)c2ccc3cc(O)ccc3c2)cc1 | 0.3313 | 27 (≈ 7.92 µg/mL) | 852 (≈ 250 µg/mL) | 27 (≈ 7.92 µg/mL) | > 30 | 69
Cc1ccccc1NC(=O)c1ccc2cc(O)ccc2c1 | 0.369 | 29 (≈ 8.04 µg/mL) | 29 (≈ 8.04 µg/mL) | 29 (≈ 8.04 µg/mL) | > 30 | 
Cc1cccc(NC(=O)c2ccc3cc(O)ccc3c2)c1 | 0.6086 | 29 (≈ 8.04 µg/mL) | 54 (≈ 15 µg/mL) | 29 (≈ 8.04 µg/mL) | > 30 | 
Cc1ccc(NC(=O)c2ccc3cc(O)ccc3c2)cc1 | 0.6227 | 29 (≈ 8.04 µg/mL) | 451 (≈ 125 µg/mL) | 29 (≈ 8.04 µg/mL) | > 30 | 
O=C(Nc1ccccc1F)c1ccc2cc(O)ccc2c1 | 0.4921 | 107 (≈ 30.1 µg/mL) | 107 (≈ 30.1 µg/mL) | 53 (≈ 14.9 µg/mL) |  | 
O=C(Nc1cccc(F)c1)c1ccc2cc(O)ccc2c1 | 0.5766 | 28 (≈ 7.88 µg/mL) | 53 (≈ 14.9 µg/mL) | 53 (≈ 14.9 µg/mL) |  | 
O=C(Nc1ccc(F)cc1)c1ccc2cc(O)ccc2c1 | 0.6726 | 28 (≈ 7.88 µg/mL) | 213 (≈ 59.9 µg/mL) | 53 (≈ 14.9 µg/mL) |  | 
O=C(Nc1ccccc1Cl)c1ccc2cc(O)ccc2c1 | 0.6777 | 27 (≈ 8.04 µg/mL) | 50 (≈ 14.9 µg/mL) | 840 (≈ 250 µg/mL) | > 30 | 38
O=C(Nc1cccc(Cl)c1)c1ccc2cc(O)ccc2c1 | 0.7684 | 27 (≈ 8.04 µg/mL) | 101 (≈ 30.1 µg/mL) | 840 (≈ 250 µg/mL) |  | 46.5
O=C(Nc1ccc(Cl)cc1)c1ccc2cc(O)ccc2c1 | 0.7947 | 27 (≈ 8.04 µg/mL) | 202 (≈ 60.1 µg/mL) | 50 (≈ 14.9 µg/mL) | > 30 | 43.8
O=C(Nc1ccccc1Br)c1ccc2cc(O)ccc2c1 | 0.7486 | 175 (≈ 59.9 µg/mL) | 88 (≈ 30.1 µg/mL) | 23 (≈ 7.87 µg/mL) | > 30 | 
O=C(Nc1cccc(Br)c1)c1ccc2cc(O)ccc2c1 | 0.8767 | 23 (≈ 7.87 µg/mL) | 175 (≈ 59.9 µg/mL) | 23 (≈ 7.87 µg/mL) | > 30 | 41.2
O=C(Nc1ccc(Br)cc1)c1ccc2cc(O)ccc2c1 | 0.8884 | 23 (≈ 7.87 µg/mL) | 1460 (≈ 500 µg/mL) | 731 (≈ 250 µg/mL) |  | 
O=C(Nc1ccccc1C(F)(F)F)c1ccc2cc(O)ccc2c1 | 0.5623 | 91 (≈ 30.1 µg/mL) | 181 (≈ 60 µg/mL) | 377 (≈ 125 µg/mL) |  | 
O=C(Nc1cccc(C(F)(F)F)c1)c1ccc2cc(O)ccc2c1 | 0.9558 | 24 (≈ 7.95 µg/mL) | 91 (≈ 30.1 µg/mL) | 24 (≈ 7.95 µg/mL) | > 30 | 42.9
O=C(Nc1ccc(C(F)(F)F)cc1)c1ccc2cc(O)ccc2c1 | 1.0133 | 24 (≈ 7.95 µg/mL) | 91 (≈ 30.1 µg/mL) | 91 (≈ 30.1 µg/mL) | > 30 | 
O=C(Nc1ccccc1[N+](=O)[O-])c1ccc2cc(O)ccc2c1 | 0.8553 | 97 (≈ 29.9 µg/mL) | 195 (≈ 60.1 µg/mL) | 26 (≈ 8.02 µg/mL) | > 30 | 
O=C(Nc1cccc([N+](=O)[O-])c1)c1ccc2cc(O)ccc2c1 | 0.8533 | 26 (≈ 8.02 µg/mL) | 97 (≈ 29.9 µg/mL) | 26 (≈ 8.02 µg/mL) | > 30 | 
O=C(Nc1ccc([N+](=O)[O-])cc1)c1ccc2cc(O)ccc2c1 | 0.5911 | 26 (≈ 8.02 µg/mL) | 49 (≈ 15.1 µg/mL) | 97 (≈ 29.9 µg/mL) |  | 
NNC(=O)c1ccncc1 [ISONIAZID] |  | 58 (≈ 7.95 µg/mL) | 3650 (≈ 500 µg/mL) | 1820 (≈ 250 µg/mL) |  | 
CO[C@H]1/C=C/O[C@@]2(C)Oc3c(C)c(O)c4c(O)c(c(/C=N/N5CCN(C)CC5)c(O)c4c3C2=O)NC(=O)/C(C)=C\C=C\[C@H](C)[C@H](O)[C@@H](C)[C@@H](O)[C@@H](C)[C@H](OC(C)=O)[C@@H]1C [RIFAMPIN] |  | 10 (≈ 8.23 µg/mL) | 10 (≈ 8.23 µg/mL) | 109 (≈ 89.7 µg/mL) |  | 
